For orientation: inhibition means the change of the read-out against control, counted positive when it falls. Usually % inhibition stands for the share of the control response that was lost under treatment.

Structures can show the parent of a compound that is named as a salt. Where two headings read alike, the source gives them in different places.

These results are taken from patent publication US20230128730A1, “OXYGEN IMPERMEABLE PORPHYRIN PHOTOSENSITIZER FILM COMPOSITION FOR APPLICATION TO PLANTS” (SUNCOR ENERGY INC., priority 2020, published 2023).

One data set deals with Sclerotinia homoeocarpa. In words: Broth protocol: control of dollar spot fungus with modified chlorins. In kind it is cell-based. As to conditions: Clarireedia homoeocarpa. How it is done: Broth protocol: control of dollar spot fungus (Sclerotinia homoeocarpa) with modified chlorins was assessed. Treatments were prepared in Phosphate Buffered Saline (PBS) in 24 well plates (in duplicates for light vs. dark incubation) at desired concentrations. Then, a 5 mm diameter plug of a Sclerotinia homoeocarpa isolate (3 isolates total tested) was inoculated into the PBS and incubated at 21° C. in the dark for 2 hours. After 2 hours, one of the 24 well plates (with isolates in triplicate) was left in the dark and one 24 well plate was placed under illumination for 1 hour (all at 21° C.). Following illumination, fungal plugs were removed from PBS, blotted dry on sterile filter paper and transferred to non-amended Potato Dextrose Agar (PDA). Radial growth of the fungus was monitored daily until the growth of S. homoeocarpa reached the edge of the Petri-dish. Illumination was provided by LED lights emitting about 1000 μmol/m2/s photosynthetically active radiation (PAR).

In data set [1] the test system is Pseudomonas syringae v. tabacii. The data set is described as follows: Inhibition of P. syringae in host plant N. benthamiana by film-forming compositions. In kind it is in vivo. As to conditions: host Nicotiana benthamiana, PVOH 89 kDa, >99% hydrolysis. How it is done:
Two days prior to inoculation, chemical treatments were applied to N. benthamiana plants at the 5-6 leaf stage until run off using a handheld spray bottle delivering a fine spray. Plants sprayed with water were used for Control. Immediately after treatment, plants were randomly placed on a shelf and exposed to LED lights emitting approximately 450 μmol/m2/s photo-synthetically active radiation (PAR) for a 12 h light/12 h dark photoperiod. For inoculation, Pst from a glycerol stock was cultured on Tryptic Soy Agar (TSA) and incubated overnight at 30° C. Bacterial cells were collected from the overnight culture, suspended in de-ionized water and diluted to 1×10^8 CFU/ml followed by the addition of 0.02% (v/v) Silwet L-77. Inoculum was then applied to plants until runoff and the plants covered with transparent plastic domes to maintain 100% relative humidity.
Inoculated plants were randomly placed on a shelf in the Growth room which was maintained at 24° C., and were exposed to a combination of fluorescent and LED lights emitting approximately 250 μmol/m^2/s PAR for an 16 h light/8 h dark photoperiod for 7 days. Entire plants were assessed for disease severity using rating scale of 0-100%. Disease symptoms included yellow lesions, discoloration on foliage, leaf deformation and stunted growth. Four replications per treatment were used in the experiment.

In data set [2] the test system is Colletotrichum orbiculare ATC20767 (Cgm). In words: Control of Colletotrichum orbiculare on Nicotiana benthamiana, film-forming formulations applied 48 h before inoculation. In kind it is in vivo. As to conditions: host Nicotiana benthamiana, PVOH 89 kDa, >99% hydrolysis. On the procedure: Control of the fungal plant pathogen Colletotrichum orbiculare ATC20767 (Cgm) on the host plant Nicotiana benthamiana following treatment with formulations containing Magnesium chlorophyllin, sodium salt with hydrogel polymer, polyvinylalcohol 89 kDa (99%+hydrolysis) and phenolic antioxidant vanillin were assessed. Treatments were applied to N. benthamiana plants approximately 48 h prior to inoculation to simulate photodegradation on a leaf surface. Subsequently, with a spore suspension of Cgm was applied to the leaves. Plants were then exposed to light for a 24-hour period followed by dark incubation until disease symptoms were evident on the water-treated control plants. Once disease symptoms were evident, lesions were counted, and leaf area measured in order to determine the number of lesions/cm^2 leaf area. Four replicate plants were used per treatment and plants were randomized under the light source. […]
Control of the fungal plant pathogen Colletotrichum orbiculare ATC20767 (Cgm) on the host plant Nicotiana benthamiana following treatment with formulations containing Magnesium chlorophyllin, sodium salt with hydrogel polymer, polyvinylalcohol 89 kDa (99%+hydrolysis) and phenolic antioxidant tannic acid were assessed. […] Once disease symptoms were evident, lesions were counted, and leaf area measured in order to determine the number of lesions/cm^2 leaf area. […]

The nature of data set [3]: Thermal stability of MgChln, 2 weeks at 54° C. As to conditions: in dH2O, wrapped in aluminum foil, mean ± SD. Type of data set: physicochemical. On the procedure: These samples were wrapped in aluminum foil and stored in a 54° C. oven for a period of 2 weeks. After the 2-week period, the samples were taken out of the 54° C. oven or -20° C. freezer and assayed using the UV-Visible plate reader (Spectramax M2E, Molecular Devices, San Jose, Calif.) with 12 technical replicates per sample. The degradation of […] as a result of storage at elevated temperature was determined by calculating the % photosensitizer remaining using the following equation: [formula] where Abst is the absorbance peak of the sample after incubation for 2 weeks at 54° C.; Abs0 is the absorbance peak of the sample at the start of experiment without being stored at 54° C. All data is expressed as mean±standard deviation.

A short description of data set [4]: Method A: photostability in a non-hydrated state (solid state), dried films under LED light. In kind it is physicochemical. On the procedure: Fifty microlitres of each formulation was pipetted into 12 wells of a 96-well clear-bottom black microplate (Thomas Scientific, Swedesboro, N.J.) and dried into thin films using a dehydrator (Gourmia GFD1680) at a temperature of 45° C. for 3 h. At the beginning of the experiment, the microplate was placed under a Heliospectra RX30 LED light array (Heliospectra, San […], Calif.). The LED array was adjusted such that the microplates received on average 1300 μmol/m^2/s of light intensity. The microplate was tightly covered with aluminum foil and at select intervals peeled back to irradiate films with either 0 h, 24 h, 48 h or 72 h of light. […] An absorbance spectral scan was conducted on the microplate (350-750 nm) using a plate reader (Spectramax M2E, Molecular Devices, San Jose, Calif.) and the peak intensity was monitored at 24 h, 48 h and/or 72 h timepoints and compared with the corresponding 0 h timepoint to determine the degree of photodegradation. The % photosensitizer remaining after irradiation was calculated using the following equation: [formula] where Abst is the absorbance peak of the sample receiving t hours of light exposure; Abs0 is the absorbance peak of the sample receiving no light exposure. All data is expressed as mean±standard deviation.

A short description of data set [5]: Method B: photostability in solution (liquid state) under LED light. In kind it is physicochemical. How it is done:
Fifty microlitres of each formulation was pipetted into 12 wells of a 96-well clear-bottom black microplate (Thomas Scientific, Swedesboro, N.J.), followed by the addition of 50 μL dH2O. The sample was sealed with a microplate clear adhesive film to minimize water evaporation. At the beginning of experiment, the microplate was placed under a Heliospectra RX30 LED light array (Heliospectra, San […], Calif.). The LED array was adjusted such that the microplates received on average 1300 μmol/m^2/s of light intensity. […] The % photosensitizer remaining after irradiation was calculated using the following equation: [formula] where Abst is the absorbance peak of the sample receiving t hours of light exposure; Abs0 is the absorbance peak of the sample receiving no light exposure. All data is expressed as mean±standard deviation.

The mark [6] stands for this setting: 1 h, read-out: Inhibition, % (Light).

For the compound `C=Cc1c(C)c2cc3nc(c(CC(=O)NCCOP(=O)(O)O)c4[nH]c(cc5nc(cc1[nH]2)C(C)=C5CC)c(C)c4C(=O)O)C(CCC(=O)O)C3C` (stereo not shown) [Ce6-mono-EP^15 amide octylammonium salt], in the data set on Sclerotinia homoeocarpa (setting [6]), the inhibition at 10 µM stood at 58% and the inhibition at 100 µM stood at 71%. Also, in the data set with Sclerotinia homoeocarpa (read-out: Inhibition, % (Dark)), the inhibition at 10 µM turned out to be 3% and the inhibition at 100 µM was -5%.
For the compound `C=CC1=C(C)C2=CC3=NC(=C(CC(=O)[O-])C4=NC(=C(C)C4=C([O-])[O-])C=c4[n-]c(c(C)c4CC)=CC1=N2)C(CCC(=O)[O-])C3C.[H+].[H+].[H+].[Mg+2]` (stereo not shown) [MgChln, Magnesium chlorin e6], the entries for the “% Disease inhibition” value in data set [1] (relative to water control) and in data set [2] (sprayed films irradiated 48 h prior to inoculation with fungal spores) were 45.3% and 95.1%, respectively. For the same compound, the “Disease severity, % Mean” value in data set [1] (sprayed two days prior to inoculation, rated 7 days after, scale 0-100%, control 80) is on record as 43.8%. Moreover, the “% inhibition” value in data set [2] (applied about 48 h prior to inoculation) is reported as 76%. Further, the “% Photosensitizer remaining” value in data set [3] turned out to be 62 ± 7%. Besides, the “% photosensitizer remaining at 72 h (solid state)” value in data set [4] (MgChln, PVOH 89 kDa, >99% hydrolysis, tannic acid, adjuvants, 72 h simulated sunlight) is reported as 41.2 ± 2.9%; in data set [4] (MgChln, PVOH 89 kDa, >99% hydrolysis, various antioxidants, 72 h simulated sunlight) it was 31.6 ± 2.3%; in data set [4] (MgChln, PVOH 89 kDa, >99% hydrolysis, dried film, 72 h light irradiation, mean ± SD), 46.0 ± 1.8%; in data set [4] (MgChln, PVOH 146 kDa, >99% hydrolysis, 72 h simulated sunlight, mean ± SD), 29.1 ± 2%; in data set [4] (MgChln, PVOH of varied molecular weight and degree of hydrolysis, 72 h simulated sunlight, mean ± SD), 45.2 ± 7.1%; in data set [4] (MgChln, various film-forming polymers and tannic acid, 72 h simulated sunlight), 42.4 ± 2.5%. The “% photosensitizer remaining at 6 h (liquid state)” value in data set [5] (MgChln, PVOH 89 kDa, >99% hydrolysis, tannic acid, adjuvants, 6 h simulated light) is given as 31.5 ± 5.3%; in data set [5] (MgChln, PVOH 89 kDa, >99% hydrolysis, various antioxidants, 6 h simulated light) it was 20.6 ± 3.9%; in data set [5] (MgChln, PVOH 146 kDa, >99% hydrolysis, 6 h simulated sunlight, mean ± SD), 35.2 ± 2.1%; in data set [5] (MgChln, PVOH of varied molecular weight and degree of hydrolysis, 6 h simulated sunlight, mean ± SD) it was 44.6 ± 9.6%; in data set [5] (MgChln, various film-forming polymers and tannic acid, 6 h) it was 27.5 ± 1.8%.
With Aluminum chlorin e6 [Aluminum Ce6Na3], in data set [4] (various tetrapyrroles, PVOH 89 kDa, >99% hydrolysis and tannic acid, 72 h simulated sunlight), the “% photosensitizer remaining at 72 h (solid state)” value was 91.4 ± 5.5%. Besides, the “% photosensitizer remaining at 6 h (liquid state)” value in data set [5] (various tetrapyrroles, PVOH 89 kDa, >99% hydrolysis and tannic acid, 6 h simulated light) is 3.9 ± 0.2%.
